Laboratory results taken from patent US20130324541A1, “POTENTIATOR OF ANTITUMOR ACTIVITY OF CHEMOTHERAPEUTIC AGENT” (Ajinomoto Co., Inc., priority 2011, published 2013).

What was measured:
[1] = tested on: human hepatic cancer cell line HAK4; assay: Annexin V apoptosis, combined use of 5FU and BCAA, HAK4 cells; type: cell-based; conditions: 72 hr, BCAA 2 mM, 5FU 2.5 μg/ml
Procedure: Human hepatic cancer cell line HAK4 cells were plated at a concentration of 3000 cells/well in a plate, and cultured 30 under the following conditions for 72 hr: • LC 2.5% medium • BCAA (2 mM) • 5FU (2.5 μg/ml) • BCAA (2 mM)+5FU (2.5 μg/ml)
(§1) After 72 hr, using ApoAlert Annexin V-FITC Apoptosis kit (Clontech), the cells were stained with annexin V and fixed, and apoptotic cells (%) were detected by Array Scan (Thermo Fisher).
To be specific, the cells in the 96 well plate were rinsed with 1×Binding Buffer, 40 μl of 1×Binding Buffer containing annexin V (1 μl) was added to each well, and the cells were incubated in the dark at room temperature for 5-15 min. The cells were washed, and fixed with 2% formaldehyde. 100 μl of PBS containing Hoechst33258 solution was added, and the cells were incubated in the dark for 5 min, and apoptotic cells (%) were detected by Array Scan.

[2] = tested on: MKN45 cells (human gastric cancer cell line); assay: WST-8 viable cell assay, 5FU and BCAA, MKN45 cells; type: cell-based; conditions: 72 hr, BCAA 2 mM or 4 mM, 5FU 0.05-1 μg/ml
Procedure: MKN45 cells (human gastric cancer cell line) were plated in a 96 well plate at a concentration of 4000 cells/100 μl/well, and cultured under the following conditions for 72 hr: • LC medium (10% FBS) • LC medium +BCAA (2 mM or 4 mM) • LC medium +5FU (0.05 μg/ml, 0.1 μg/ml, 0.5 μg/ml or 1 μg/ml) • LC medium +BCAA (2 mM or 4 mM) +5FU (0.05 μg/ml, 0.1 μg/ml, 0.5 μg/ml or 1 μg/ml)
After 72 hr, WST-8 reagent was added (10 μl/well) and, after color development for 1 hr, the absorbance of OD 450 nm was measured. The absorbance of each group was shown by a is relative value provided that the absorbance of a non-stimulation group was assumed to be 1000. WST-8 is reduced by intracellular dehydrogenase to produce water-soluble formazan. By directly measuring the absorbance of formazan at 450 nm, the number of viable cells can be easily measured. The cell number and the amount of produced formazan are in a linear proportional correlation.

[3] = tested on: HCT116 cells (human colorectal cancer cell line); assay: Annexin V apoptosis, combined use of 5FU and BCAA, HCT116 cells; type: cell-based; conditions: 72 hr, BCAA 2 mM, 5FU 2 μg/ml
Procedure: HCT116 cells (human colorectal cancer cell line) were plated at a concentration of 4000 cells/well in a plate, and cultured under the following conditions for 72 hr: • LC 2.5% medium • BCAA (2 mM) • 5FU (2 μg/ml) • BCAA (2 mM)+5FU (2 μg/ml)
as §1

HAK1B cells = assay: HAK1B subcutaneous transplant in nude mice, tumor weight and volume; type: in vivo, BALB/c nude mice; conditions: 5FU 250 μg/tumor into the tumor, 3(w/w)% BCAA mixed feed for 2 weeks, vs control group
Procedure: HAK1B cells were subcutaneously transplanted to 7-week-old female BALB/c nude mice (purchased from Japan Charles River) at 7,000,000 cells/mouse. After 1 week, the mice were grouped based on the tumor area. 5FU 250 μg/tumor (vehicle 10% DMSO/DW) was administered into the tumor (see Cancer Research, 70(11), 4687-4697, 2010), as well as a 3(w/w) % BCAA mixed feed or a 3(w/w) % casein mixed feed was given for 2 weeks. That is, treatments of 4 groups are as described below: • group 1: vehicle+casein mixed feed (control group) • group 2: 5FU+casein mixed feed • group 3: vehicle+BCAA mixed feed • group 4: 5FU+BCAA mixed feed
Using a vernier caliper, the tumor volume (longest Diameter×shortest diameter×height (mm^3)) was measured from the outer side of the tumor to monitor time-course changes in the tumor volume. On day 43, autopsy was performed, and the weight and volume of the tumor were measured.

[4] = tested on: human breast cancer cell line MDA-MB231; assay: Growth of MDA-MB231 cells (cell number, Hoechst staining); type: cell-based; conditions: 5 days, 5-FU 0.25 μg/ml, BCAA 4 mM
Procedure: MDA-MB231 cells were suspended in RPMI-10% (RPMI medium containing 10% FBS), and plated in a plate at 2000 cells/well. The next day, the medium was exchanged to those shown below, and the cells were further cultured for 5 days. • group 1: RPMI-10% • group 2: RPMI-10% containing BCAA (4 mM) • group 3: RPMI-10% containing 5-FU (0.25 μg/m1) • group 4: RPMI-10% containing 5-FU (0.25 μg/ml) +BCAA (4 mM)
After 5 days, cellular nucleus was stained with Hoechst reagent, and the cell number was counted. In groups 1 and 2, cells were stained with anti-CD44 antibody, and the ratio of CD44 positive cells was analyzed by Array Scan using fluorescence microscopic quantification apparatus (Thermo Fisher).

O=c1[nH]cc(F)c(=O)[nH]1 [5FU, 5-fluorouracil]
apoptotic cells (Annexin V positive cells) [1]: increased
number of viable cells (WST-8, OD 450 nm) [2]: decreased
apoptotic cells (Annexin V positive cells) [3]: increased
tumor volume (HAK1B cells): significantly decreased
tumor weight (HAK1B cells): significantly decreased
number of viable cells (cell number) [4]: decreased
